Data from ChEMBL document CHEMBL5126567, “Synthesis of novel immunomodulatory 1,4-disubstituted bis-1,2,3-triazoles by using click chemistry and their intracellular mechanism of action” (Bioorg Med Chem Lett, 2022).
Activity calls are given as the source filed them. The rule behind the calls is not given here.

What was measured:
[1] = test system: J774.2; assay: Cytotoxicity against mouse J774.2 cells assessed as cell viability; type: toxicity, cell-based
[2] = test system: J774.2; assay: Antiinflammatory activity in LPS-induced mouse J774.2 cells assessed as decrease in IL6 level at 1 to 10 ug/mL measured after 24 hrs by ELISA; type: functional, cell-based; settings: dose 1-10 µg/ml
[3] = test system: J774.2; assay: Inhibition of PI3K/AKT signalling pathway in LPS-induced mouse J774.2 cells assessed as decrease in phosphorylated PI3K level at 10 ug/mL after 24 hrs by flow cytometry; type: cell-based; settings: dose 10.0 µg/ml
[4] = test system: J774.2; assay: Antiinflammatory activity in LPS-induced mouse J774.2 cells assessed as decrease in TNF-alpha level at 1 to 10 ug/mL measured after 24 hrs by ELISA; type: functional, cell-based; settings: dose 1-10 µg/ml
[5] = test system: J774.2; assay: Antiinflammatory activity in LPS-induced mouse J774.2 cells assessed as decrease in GMCSF level at 1 to 10 ug/mL measured after 24 hrs by ELISA; type: functional, cell-based; settings: dose 1-10 µg/ml

Row | SMILES | Activity [1] | Activity [2] | inhibition [3] | Activity [4] | Activity [5]
1 | CCCC(C)c1cn(CC(=O)Nc2ccccc2NC(=O)Cn2cc(C(C)CCC)nn2)nn1 (stereo not drawn) | Non-Toxic | Active | Active | Active | Active
2 | CCOC(=O)c1cn(CC(=O)Nc2ccccc2NC(=O)Cn2cc(C(=O)OCC)nn2)nn1 | Non-Toxic | Active | – | Active | Active
3 | O=C(Cn1cc(CC2CCCCC2)nn1)Nc1ccccc1NC(=O)Cn1cc(CC2CCCCC2)nn1 | Non-Toxic | Active | Active | Active | Active
4 | O=C(Cn1cc(-c2ccccc2)nn1)Nc1ccccc1NC(=O)Cn1cc(-c2ccccc2)nn1 | Non-Toxic | Active | – | Active | Active
5 | O=C(Cn1cc(C2CC2)nn1)Nc1ccccc1NC(=O)Cn1cc(C2CC2)nn1 | Non-Toxic | Active | Active | Active | Active
6 | O=C(Cn1cc(C2CCCC2)nn1)Nc1ccccc1NC(=O)Cn1cc(C2CCCC2)nn1 | Non-Toxic | Active | Active | Active | Active
